Assay results taken from patent publication US20080227780A1, “SOLUBLE EPOXIDE HYDROLASE INHIBITORS” (Arete Therapeutics, Inc., priority 2007, published 2008).

System: soluble epoxide hydrolase (sEH)
Assay: Fluorescent assay for soluble epoxide hydrolase (CMNPC substrate), percent inhibition at the recited concentration
Type: biochemical
Text: Fluorescent Assay for Mouse and Human Soluble Epoxide Hydrolase Recombinant mouse sEH (MsEH) and human sEH (HsEH) were produced in a baculovirus expression system as previously reported. Grant et al., J. Biol. Chem., 268:17628-17633 (1993); Beetham et al., Arch. Biochem. Biophys., 305:197-201 (1993). The expressed proteins were purified from cell lysate by affinity chromatography. Wixtrom et al., Anal. Biochem., 169:71-80 (1988). Protein concentration was quantified using the Pierce BCA assay using bovine serum albumin as the calibrating standard. The preparations were at least 97% pure as judged by SDS-PAGE and scanning densitometry. They contained no detectable esterase or glutathione transferase activity which can interfere with the assay. The assay was also evaluated with similar results in crude cell lysates or homogenate of tissues. The IC50s for each inhibitor were determined according to the following procedure: […] Jones P. D. et al.; Analytical Biochemistry 2005; 343: pp. 66-75) Bis/Tris HCl 25 mM pH 7.0 containing 0.1 mg/mL of BSA (buffer […] at 0.25 mM in DMSO. Mother solution of enzyme in buffer A (Mouse sEH at 6 μg/mL and Human sEH at 5 μg/mL). Inhibitor dissolved in DMSO at the appropriate concentration. In a black 96 well plate, fill all the wells with 150 μL of buffer A. Add 2 μL of DMSO in well A2 and A3, and then add 2 μL of inhibitor solution in A1 and A4 through A12. Add 150 μL of buffer A in row A, then mix several time and transfer 150 μL to row B. Repeat this operation up to row H. The 150 μL removed from row H is discarded. Add 20 μL of buffer A in column 1 and 2, then add 20 μL of enzyme solution to column 3 to 12. Incubate the plate for 5 minutes in the plate reader at 30° C. During incubation prepare the working solution of substrate by mixing 3.68 mL of buffer A (4×0.920 mL) with 266 μL (2×133 μL) of substrate solution). At t=0, add 30 μL of working substrate solution with multi-channel pipette labeled “Briggs 303” and start the reading ([S]final: 5 μM). Read with ex: 330 nm (20 nm) and em: 465 nm (20 nm) every 30 second for 10 minutes. The velocities are used to analyze and calculate the IC50s. Tables 1-7 above provide the percent inhibition of the enzyme when tested at the concentration recited therein.

Row | Compound | % inh. (Inhibition Conc. 50 nM) [%] | further results
1 | NS(=O)(=O)c1ccc(C(=O)N2CCC(NC(=O)NC34CC5CC(CC(C5)C3)C4)CC2)cc1 [Compound 4-3, 4-(4-(3-(1-adamantyl)ureido)-piperidine-1-carbonyl)benzene-sulfonamide] | 93 | –
2 | CS(=O)(=O)N1CCC(NC(=O)NC2CCN(S(C)(=O)=O)CC2)CC1 [Compound 8-1, 1,3-bis(1-(methylsulfonyl)piperidin-4-yl)urea] | – | % inh. (Inhibition Conc. 5000 nM): 79%
3 | CC(=O)N1CCC(NC(=O)N2CCC(NC(=O)NC34CC5CC(CC(C5)C3)C4)CC2)CC1 [Compound 7-57, N-(1-acetylpiperidin-4-yl)-4-(3-adamantylureido)piperidine-1-carboxamide] | – | % inh. (Inhibition Conc. 200 nM): 90%
4 | CC(=O)N1CCC(NC(=O)NC23CC4CC(F)(CC(F)(C4)C2)C3)CC1 [Compound 3-3, 1-(1-acetylpiperidin-4-yl)-3-(3,5-difluoroadamant-1-yl)urea] | – | % inh. (Inhibition Conc. 500 nM): 63%
5 | CNS(=O)(=O)c1ccc(C(=O)N2CCC(NC(=O)NC34CC5CC(CC(C5)C3)C4)CC2)cc1 [Compound 4-8, 4-(4-(3-(1-adamantyl)ureido)-piperidine-1-carbonyl)-N-methylbenzene-sulfonamide] | 93 | –
6 | CC(=O)N1CCC(NC(=O)Nc2ccc3nc(C)sc3c2)CC1 [Compound 6-15, 1-(1-acetylpiperidin-4-yl)-3-(2-methylbenzo[d]thiazol-6-yl)urea] | – | % inh. (Inhibition Conc. 2000 nM): 70%
7 | CC(C)(C)OC(=O)N1CCC(NC(=O)NC2CCCCCCC2)CC1 [Compound 7-64, tert-butyl 4-(3-cyclooctylureido)piperidine-1-carboxylate] | – | % inh. (Inhibition Conc. 200 nM): 97%
8 | CC(=O)N1CCC(NC(=O)NCC2CCCCC2)CC1 [Compound 1-2, 1-(1-acetylpiperidin-4-yl)-3-(cyclo-hexylmethyl)urea] | – | % inh. (Inhibition Conc. 500 nM): 92%
9 | O=C(Nc1ccc(C(F)(F)F)cc1)NC1CCN(c2ccccc2F)CC1 [Compound 2-13, 1-(1-(2-fluorophenyl)piperidin-4-yl)-3-(4-(trifluoromethyl)phenyl)urea] | – | % inh. (Inhibition Conc. 2000 nM): 18%
10 | CC(C)S(=O)(=O)N1CCC(NC(=O)Nc2ccc(OC(F)(F)F)cc2)CC1 [Compound 7-55, 1-(1-(isopropylsulfonyl)piperidin-4-yl)-3-(4-(trifluoromethoxy)phenyl)urea] | – | % inh. (Inhibition Conc. 200 nM): 94%
11 | O=C(NC1CCN(S(=O)(=O)CCCO)CC1)NC12CC3CC(CC(C3)C1)C2 [Compound 7-74, 1-adamantyl-3-(1-(3-hydroxypropylsulfonyl)piperidin-4-yl)urea] | – | % inh. (Inhibition Conc. 200 nM): 99%
12 | CC(C)(C)OC(=O)N1CCC(NC(=O)NC2CCC2)CC1 [Compound 7-50, tert-butyl 4-(3-cyclobutylureido)piperidine-1-carboxylate] | – | % inh. (Inhibition Conc. 200 nM): 76%
13 | CC(=O)N1CCC(NC(=O)Nc2ccc(C#N)cc2)CC1 [Compound 7-80, 1-(1-acetylpiperidin-4-yl)-3-(4-cyanophenyl)urea] | – | % inh. (Inhibition Conc. 2000 nM): 80%
14 | CC(=O)N1CCC(NC(=O)NCCCCCCCCO)CC1 [Compound 1-6, 1-(1-acetylpiperidin-4-yl)-3-(8-hydroxyoctyl)urea] | – | % inh. (Inhibition Conc. 500 nM): 85%
15 | O=C(Nc1ccc(C(F)(F)F)cc1)NC1CCN(c2ccccc2)CC1 [Compound 2-5, 1-(1-phenylpiperidin-4-yl)-3-(4-(trifluoro-methyl)phenyl)urea] | 99 | –
16 | O=C(Nc1ccc(OC(F)(F)F)cc1)NC1CCN(C(=O)CCCO)CC1 [Compound 7-71, 1-(1-(4-hydroxybutanoyl)piperidin-4-yl)-3-(4-(trifluoromethoxy)phenyl)urea] | – | % inh. (Inhibition Conc. 200 nM): 84%
17 | CC(=O)N1CCC(NC(=O)NC2CCS(=O)(=O)CC2)CC1 [Compound 8-5, 1-(1-acetylpiperidin-4-yl)-3-(1,1-dioxo-tetrahydro-2H-thiopyran-4-yl)urea] | – | % inh. (Inhibition Conc. 2000 nM): 23%
18 | O=C(Nc1ccc(OC(F)(F)F)cc1)NC1CCN(c2ccc(F)cc2)CC1 [Compound 2-11, 1-(1-(4-fluorophenyl)piperidin-4-yl)-3-(4-(trifluoromethoxy)phenyl)urea] | – | % inh. (Inhibition Conc. 2000 nM): 100%
19 | CC(C)(C)OC(=O)N1CCC(NC(=O)Nc2ccc(CN3CCCC3)cc2)CC1 [Compound 7-68, tert-butyl 4-(3-(4-(pyrrolidin-1-ylmethyl)phenyl)ureido)piperidine-1-carboxylate] | – | % inh. (Inhibition Conc. 2000 nM): 93%
20 | CC(C)(C)C(=O)N1CCC(NC(=O)Nc2ccc(C#N)cc2)CC1 [Compound 7-81, 1-(4-cyanophenyl)-3-(1-pivaloylpiperidin-4-yl)urea] | – | % inh. (Inhibition Conc. 200 nM): 91%
21 | CC(C)(C)OC(=O)N1CCC(NC(=O)Nc2ccc(N3CCOCC3)cc2)CC1 [Compound 7-86, tert-butyl 4-(3-(4-morpholinophenyl)ureido)piperidine-1-carboxylate] | – | % inh. (Inhibition Conc. 2000 nM): 90%
22 | COCC(=O)N1CCC(NC(=O)NC23CC4CC(CC(C4)C2)C3)CC1 [Compound 7-76, 1-adamantyl-3-(1-(2-methoxyacetyl)piperidin-4-yl)urea] | – | % inh. (Inhibition Conc. 200 nM): 94%
23 | NS(=O)(=O)c1cccc(C(=O)N2CCC(NC(=O)NC34CC5CC(CC(C5)C3)C4)CC2)c1 [Compound 4-4, 3-(4-(3-(1-adamantyl)ureido)-piperidine-1-carbonyl)benzene-sulfonamide] | 93 | –
24 | O=C(Nc1ccc(C(F)(F)F)cc1)NC1CCN(c2ncccc2C(F)(F)F)CC1 [Compound 2-2] | 97 | –
25 | CC(=O)N1CCC(NC(=O)NCC23CC4CC(CC(C4)C2)C3)CC1 [Compound 1-1, 1-(1-acetyl-piperidin-4-yl)-3-(1-adamantyl-methyl)-urea] | 87 | –

Second part, led by results:

Row | % inh. (Inhibition Conc. 50 nM) [%] | Compound | further results
26 | 89 | Cn1cnc(C(=O)N2CCC(NC(=O)NC34CC5CC(CC(C5)C3)C4)CC2)c1 [Compound 7-39, 1-adamantyl-3-(1-(1-methyl-1H-imidazole-4-carbonyl)piperidin-4-yl)urea] | –
27 | 96 | O=C(NC1CCN(C(=O)c2ccc(Cl)cc2)CC1)NC12CC3CC(CC(C3)C1)C2 [Compound 7-46, 1-(1-(4-chlorobenzoyl)piperidin-4-yl)-3-adamantylurea] | –
28 | 98 | O=C(Nc1ccc(C(F)(F)F)cc1)NC1CCN(C(=O)Nc2ccc(C(F)(F)F)cc2)CC1 [Compound 7-16, N-(4-(trifluoromethyl)phenyl)-4-(3-(4-(trifluoro-methyl)phenyl)ureido)-piperidine-1-carboxamide] | –
29 | 97 | CC(C)(C)c1ccc(S(=O)(=O)N2CCC(NC(=O)NC34CC5CC(CC(C5)C3)C4)CC2)cc1 [Compound 7-30, 1-(1-(4-tert-butylphenylsulfonyl)piperidin-4-yl)-3-adamantylurea] | –
30 | 92 | CC(C)(C)OC(=O)N1CCC(NC(=O)Nc2ccc(Oc3ccccc3)cc2)CC1 [Compound 7-9, tert-butyl 4-(3-(4-phenoxyphenyl)ureido)-piperidine-1-carboxylate] | –
31 | 97 | O=C(NC1CCN(S(=O)(=O)c2ccccc2C(F)(F)F)CC1)NC12CC3CC(CC(C3)C1)C2 [Compound 7-32, 1-adamantyl-3-(1-(2-(trifluoromethyl)phenylsulfonyl)piperidin-4-yl)urea] | –
32 | 99 | COc1ccc(S(=O)(=O)N2CCC(NC(=O)NC34CC5CC(CC(C5)C3)C4)CC2)cc1 [Compound 7-1, 1-(1-adamantyl)-3-(1-(4-methoxyphenylsulfonyl)-piperidin-4-yl)urea] | –
33 | 92 | COC(=O)N1CCC(NC(=O)Nc2ccc(C(F)(F)F)cc2)CC1 [Compound 7-14, methyl 4-(3-(4-(trifluoromethyl)phenyl)ureido)piperidine-1-carboxylate] | –
34 | 100 | O=C(NC1CCN(S(=O)(=O)c2ccc(Cl)c(Cl)c2)CC1)NC12CC3CC(CC(C3)C1)C2 [Compound 7-37] | –
35 | 100 | CC(C)(C)OC(=O)N1CCC(NC(=O)Nc2ccc(C(F)(F)F)cc2)CC1 [Compound 7-47, tert-butyl 4-(3-(4-(trifluoromethyl)phenyl)ureido)piperidine-1-carboxylate] | –
36 | 95 | O=C(NC1CCN(S(=O)(=O)c2ccc(Cl)cc2)CC1)NC12CC3CC(CC(C3)C1)C2 [Compound 7-27] | –
37 | 98 | O=C(Nc1ccc(OC(F)(F)F)cc1)NC1CCN(C(=O)c2ccccn2)CC1 [Compound 7-2, 1-(1-picolinoylpiperidin-4-yl)-3-(4-(trifluoro-methoxy)phenyl)urea] | –
38 | 93 | CC(C)OC(=O)N1CCC(NC(=O)NC23CC4CC(CC(C4)C2)C3)CC1 [Compound 7-23, isopropyl 4-(3-(1-adamantyl)ureido)piperidine-1-carboxylate] | –
